Entries after “also recorded” stand apart in the source; their conditions may differ.
Tested on: MDA-MB231 breast cancer cells
Assay: Microcapillary motility assay (MMA) with agents that alter microtubule dynamics
Assay type: cell-based, human
Details: for kymograph analysis of single cell motility: 18 hour period, FIG. 13; for concentration at which persistent motility is inhibited: microcapillaries, no chemical gradient; for effect on persistent migration behavior: different concentrations, summary of Example 11; for effect on speed of cancer cell migration through the microcapillary array: result in words
Source text: Referring now to FIGS. 7A-7B, a microcapillary motility assay (MMA) device 700 including microfluidic devices 750 were manufactured by casting polydimethyl siloxane (PDMS, Dow Corning, Midland. Mich.) on a microstructured mold. The microstructured mold was fabricated using standard photolithographic technologies. A silicon wafer was coated with a 10 μm thin layer of photoresist (SU8, Microchem, Newton, Mass.) and processed following the standard protocol as recommended by the manufacturer. A second, thicker layer of approximately 50 μm was then photopatterned on the same wafer and aligned with respect to the first layer in order to define the connections between the capillaries and the wells. The mold was placed in a Petri-dish and covered with PDMS freshly prepared according to the manufacturer's instructions. After baking for 8 hours at 65° C., the cast PDMS was removed from the mold, one microwell for each device was punched using a 2 mm puncher, and each device was cut using a 5 mm puncher. After exposure for 20 seconds to oxygen plasma in a plasma asher (March, Concord, Calif.), the devices were individually bonded on the coverslips at the bottom of 24-well plates (Mattek, Ashland, Mass.).
After bonding, and while the PDMS was still hydrophilic, 2 μL of a solution of 2 μg/mL collagen IV was added inside the center microwell of each device. The strong capillary force ensured the collagen solution filled the capillaries. Excess collagen was later washed away by adding 5 μL of phosphate buffer (PBS) in only one well of the devices. Alternatively, 2 μL of Matrigel (BD Biosciences, San Jose, Calif.) was added in one well at 4° C. and the entire plate was heated to 37° C. for 5 minutes.
Before performing each migration assay, cells growing in cell culture flasks were washed with PBS, lifted from the surface using trypsin or 10 mM calcium chelator solution in buffer (EDTA, Sigma Aldrich, St. Louis, Mo.), suspended into 10 mL of media, centrifuged, and re-suspended into media at 10^6 cells/mL. Cells were then seeded in one well of each device, by directly pipetting 3-4 μL of the cell suspension in each well. After loading the cells, 3 mL of corresponding media were added to each well of the multi-well plate, completely covering the devices.
To image the moving cells, the multi-well plate was placed on the motorized stage of a Zeiss Axiovert microscope fitted with an environmental chamber. The environment was set at 37.7° C. and 5% CO2. Cells were imaged using 10× objective and phase contrast. Three separate images from each array were acquired every 6 minutes for 24-48 hours. Because cell motility is restricted only along the capillary, in one linear dimension, the motility is easy to image and easy to quantify for extended periods of times. We have tracked cells for more than 72 hours.
To quantify the migration of individual cells, images were analyzed using the manual tracking function in the Image J software. The middle of cells was tracked through the series of frames and only cells entering the microcapillaries were tracked. At least 50 cells migrating through the capillaries were tracked for each condition. Average velocity over 12 hours was calculated from temporary velocities over each 6 minutes interval and presented as mean and standard error of the mean.
To probe into the mechanisms responsible for persistent cell migration, we exposed the cells to drugs that alter microtubule dynamics while performing the MMA described in Example 2 using the microfluidic device shown in FIG. 2.

[1] = MDA-MB231 breast cancer line, FIG. 11

Row | Compound | kymograph analysis of single cell motility (nocodazole 0.05 ng/mL) | concentration at which migration of the fastest moving cells is inhibited (MDA-MB231 breast cancer line, FIG. 11, only Nocodazole) | concentration at which persistent motility is inhibited [1] | concentration that significantly altered the speed of migration for all cells in the population (all cells in the population) [µM] | effect on persistent migration behavior | concentration of significant decrease in motility (dose response) (migration through microcapillary array) [nM] | effect on speed of cancer cell migration through the microcapillary array | kymograph analysis of single cell motility (taxol 12 nM) | speed of the fastest cells under drug (Taxol between 1 and 10 μM, some cells only) [μm/hour]
1 | COC(=O)Nc1nc2ccc(C(=O)c3cccs3)cc2[nH]1 [Nocodazole] | frequent changes of direction and less persistence | above 1 ng/mL | above 0.5 ng/mL | > 1 | alteration of the persistent migration behavior | < 100 | significantly decrease the speed | – | –
2 | CC(=O)O[C@H]1C(=O)[C@@]2(C)[C@H]([C@H](OC(=O)c3ccccc3)[C@]3(O)C[C@H](OC(=O)[C@H](O)[C@@H](NC(=O)c4ccccc4)c4ccccc4)C(C)=C1C3(C)C)[C@]1(OC(C)=O)CO[C@@H]1C[C@@H]2O [Taxol, Paclitaxel] | – | – | above 100 ng/mL | – | does not alter the persistent migration | – | significantly decrease the speed | persistent movement along the microcapillary; also recorded: reverses direction at the end of the microcapillary | > 100
